Experimental findings from ChEMBL document CHEMBL1268882, “Synthesis and biological evaluation of novel triptolide analogues for anticancer activity” (Bioorg Med Chem Lett, 2010) are described below.

Structures are written as SMILES.

For one experiment, the system named is PC-3. In words: Antiproliferative activity against human PC3 cells after 72 hrs by SRB assay. The class given is functional, cell-based. Conditions: PC-3, 72 h.
For another experiment, the system named is SK-OV-3. Description: Antiproliferative activity against human SKOV3 cells after 72 hrs by SRB assay. It counts as functional, cell-based. Conditions: SK-OV-3, 72 h.

The IC50 is the concentration needed to halve the response being measured. Read a low IC50 as inhibition by little substance.

`CC(C)[C@]12O[C@H]1C=C1[C@]3(O[C@H]3C[C@H]3C4=C(CC[C@]13C)C(=O)OC4)C2=O`: the half-inhibitory concentration (IC50) in the experiment on PC-3 worked out at 2.7 µM; in the experiment on SK-OV-3, 3 nM.

Take `CC(C)[C@]12O[C@H]1C=C1[C@]3(O[C@H]3C[C@H]3C4=C(CC[C@]13C)C(=O)OC4)[C@@H]2O`: the IC50 worked out at 0.01 µM with PC-3 and 0.05 nM in the experiment with SK-OV-3.

Turning to `CC(C)[C@]12O[C@H]1C=C1[C@]3(O[C@H]3C[C@H]3C4=C(CC[C@]13C)C(=O)OC4)[C@H]2O`, the half-maximal inhibitory concentration (IC50) in the experiment with PC-3 came to 29 µM; in the experiment with SK-OV-3, 500 nM.

On to `CC(C)[C@]12O[C@H]1[C@H](O)[C@@]1(O)[C@@]3(C)CCC4=C(COC4=O)[C@@H]3C[C@@H]3O[C@@]31C2=O`, for which the IC50 was above 100 µM in the experiment on PC-3 and above 100000 nM in the experiment on SK-OV-3.

Turning to `CC(C)[C@]12O[C@H]1C=C1[C@]3(O[C@H]3C[C@H]3C4=C(CC[C@]13C)C(=O)NC4)C2=O`, the IC50 worked out at 0.9 µM with PC-3 and 20 nM in the experiment on SK-OV-3.

Regarding `CC(C)[C@]12O[C@H]1[C@@H]1O[C@@]13[C@@]1(C)CCC4=C(CNC4=O)[C@@H]1C[C@@H]1O[C@@]13C2=O`, the IC50 in the experiment on PC-3 was found to be 14 µM; in the experiment with SK-OV-3 it was 20 nM.

For `CC(C)[C@@]12O[C@@H]1C=C1[C@]3(O[C@H]3C[C@@H]3C4=C(CC[C@]13C)C(=O)OC4)C2=O`, the IC50 in the experiment on PC-3 is above 100 µM; in the experiment with SK-OV-3 it was 95000 nM.

As to `CC(C)[C@]12O[C@H]1C=C1[C@]3(O[C@H]3C[C@@H]3C4=C(CC[C@]13C)C(=O)OC4)C2=O`, the results for the concentration for half-maximal inhibition (IC50) in the experiment on PC-3 and in the experiment on SK-OV-3 were 29 µM and 66000 nM, respectively.

`CC(C)[C@@]12O[C@@H]1[C@H]1O[C@]13[C@@]1(C)CCC4=C(COC4=O)[C@H]1C[C@@H]1O[C@@]13C2=O`: the concentration for half-maximal inhibition (IC50) in the experiment with PC-3 is above 100 µM; with SK-OV-3 it was above 100000 nM.

With `CC(C)[C@]12O[C@H]1[C@H]1O[C@]13[C@@]1(C)CCC4=C(COC4=O)[C@H]1C[C@@H]1O[C@@]13C2=O`, the half-maximal inhibitory concentration (IC50) in the experiment with PC-3 was above 100 µM; in the experiment on SK-OV-3 it was above 100000 nM.

Regarding `CC(C)[C@]12O[C@H]1C=C1[C@]3(O[C@H]3C[C@@H]3C4=C(CC[C@]13C)C(=O)OC4)[C@@H]2O`, the concentration for half-maximal inhibition (IC50) in the experiment on PC-3 was above 100 µM; with SK-OV-3, above 100000 nM.

As for `CC(C)[C@]12O[C@H]1[C@H]1O[C@]13[C@@]1(C)CCC4=C(COC4=O)[C@H]1C[C@H]1O[C@@]13C2=O`, the 50% inhibitory concentration (IC50) in the experiment with PC-3 was above 100 µM; with SK-OV-3, 4600 nM.

As for `CC(C)[C@@]12O[C@@H]1C=C1[C@]3(O[C@@H]3C[C@@H]3C4=C(CC[C@]13C)C(=O)OC4)[C@@H]2O`, the 50% inhibitory concentration (IC50) with PC-3 was above 100 µM; in the experiment with SK-OV-3, 56000 nM.

In turn, `CC(C)[C@]12O[C@H]1[C@@H]1O[C@]13[C@]1(O[C@H]1C[C@H]1C4=C(CC[C@@]13C)C(=O)OC4)[C@@H]2O` [TRIPTOLIDE] returned a 50% inhibitory concentration (IC50) with SK-OV-3 of 6 nM.

For `CC(C)[C@]12O[C@H]1[C@@H]1O[C@@]13[C@@]1(C)CCC4=C(COC4=O)[C@@H]1C[C@@H]1O[C@@]13C2=O` [TRIPTONIDE], the 50% inhibitory concentration (IC50) in the experiment on PC-3 was found to be 0.6 µM; in the experiment with SK-OV-3 it was 8 nM.
